We go through 28 molecules from patent publication US20070219186A1, “Pyrazolo[1,5-A]pyrimidine derivatives and methods of use thereof” (priority 2006, published 2007).

pIC50: −log10 of the molar value. Where two headings read alike, the source gives them in different places.

The target of this assay is T1, human B-Raf (Homo sapiens, UniProt P15056).
T1 construct: Flag; GST; made in house; host or cells: Sf9 insect cells (B-Raf); E. coli (MEK1-GST)
Description: B-Raf Kinase to MEK1 ELISA. Type of assay: biochemical. The settings on record: for inhibition at 10 µM: read-out: % Inhib./10 uM. An outline of the steps: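 Flag/GST-tagged human B-Raf (Sf9, ~20 ng/point) phosphorylates non-active GST-MEK1 (50 nM final) with ATP and MgCl2 in MOPS pH 7.2 buffer, 60 min at RT. Product is captured on anti-GST plates; MEK1 pSer217/221 is read by phospho-antibody plus europium conjugate (DELFIA).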
Background: An ELISA detects its analyte on a solid surface through an enzyme-linked reagent.

Setting [1] is: median, cpd concentrations from 10 μM to 30 nM in half log dilutions, read-out: Median IC50.

T1 sequence (P15056 whole entry): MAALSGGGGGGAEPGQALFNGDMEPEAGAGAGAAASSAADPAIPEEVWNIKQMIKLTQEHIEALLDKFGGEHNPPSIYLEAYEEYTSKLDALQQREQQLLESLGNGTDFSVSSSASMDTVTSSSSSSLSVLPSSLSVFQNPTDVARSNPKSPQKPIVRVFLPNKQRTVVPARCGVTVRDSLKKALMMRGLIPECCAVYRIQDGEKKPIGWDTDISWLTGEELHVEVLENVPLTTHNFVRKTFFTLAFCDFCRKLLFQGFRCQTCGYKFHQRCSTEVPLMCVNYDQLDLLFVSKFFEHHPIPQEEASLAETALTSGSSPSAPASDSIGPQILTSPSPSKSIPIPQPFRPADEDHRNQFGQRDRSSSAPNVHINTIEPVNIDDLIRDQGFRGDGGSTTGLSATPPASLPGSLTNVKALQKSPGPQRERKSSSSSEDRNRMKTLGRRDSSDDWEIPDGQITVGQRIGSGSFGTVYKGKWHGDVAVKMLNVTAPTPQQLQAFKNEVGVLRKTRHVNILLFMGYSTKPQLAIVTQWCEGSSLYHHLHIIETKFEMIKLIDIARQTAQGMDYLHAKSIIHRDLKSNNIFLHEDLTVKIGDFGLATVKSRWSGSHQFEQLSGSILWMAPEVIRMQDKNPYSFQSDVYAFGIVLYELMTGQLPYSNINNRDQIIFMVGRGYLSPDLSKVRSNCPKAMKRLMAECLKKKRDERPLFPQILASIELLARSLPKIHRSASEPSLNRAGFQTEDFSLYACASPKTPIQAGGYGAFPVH

`CCOC(=O)c1cnn2c(-c3cccc(NC(=O)Cc4cccc(C)c4)c3)ccnc12` [Example 98, ethyl 7-(3-{[(3-methylphenyl)acetyl]amino}phenyl)pyrazolo[1,5-a]pyrimidine-3-carboxylate]: the inhibition at 10 µM came out at 15%. Also, under setting [1], the negative-log IC50 (pIC50) (commonly the IC50 on a negative log10 scale, so that one unit is a factor of ten) was less than 5.00.

As for `O=C(Nc1cccc(-c2ccnc3c(-c4nn[nH]n4)cnn23)c1)c1cccc(C(F)(F)F)c1` [Example 60, N-{3-[3-(2H-tetrazol-5-yl)pyrazolo[1,5-a]pyrimidin-7-yl]phenyl}-3-(trifluoromethyl)benzamide], the inhibition at 10 µM was 1%. Also, the pIC50 under setting [1] was less than 5.00.

With `COC(=O)c1cccc(-c2cnn3c(-c4cccc(NC(=O)c5cccc(C(F)(F)F)c5)c4)ccnc23)c1` [Example 296, methyl 3-[7-(3-{[3-(trifluoromethyl)benzoyl]amino}phenyl)pyrazolo[1,5-a]pyrimidin-3-yl]benzoate], the negative logarithm of the IC50 (pIC50) is 5.75 and the inhibition at 10 µM worked out at 53%.

Turning to `COC[C@H]1CCCN1c1cc2nccc(-c3cccc(NC(=O)c4cccc(C(F)(F)F)c4)c3)n2n1` [Example 210, N-(3-{2-[(2R)-2-(methoxymethyl)pyrrolidin-1-yl]pyrazolo[1,5-a]pyrimidin-7-yl}phenyl)-3-(trifluoromethyl)benzamide], the inhibition at 10 µM came out at 52%. Also, the negative logarithm of the IC50 (pIC50) under setting [1] was 5.60.

Regarding `CCOC(=O)c1cnn2c(-c3cccc(NC(=O)c4cc5ccccc5s4)c3)ccnc12` [Example 5, ethyl 7-{3-[(1-benzothien-2-ylcarbonyl)amino]phenyl}pyrazolo[1,5-a]pyrimidine-3-carboxylate], the inhibition at 10 µM amounted to 24%. Further, the negative-log IC50 (pIC50) under setting [1] is less than 4.70.

On to `CCOC(=O)c1cnn2c(-c3cccc(NC(=O)c4cccc(OC)c4)c3)ccnc12` [Example 8, ethyl 7-{3-[(3-methoxybenzoyl)amino]phenyl}pyrazolo[1,5-a]pyrimidine-3-carboxylate], for which the pIC50 under setting [1] was less than 5.00. Besides, the inhibition at 10 µM (single point assay, 10 uM) was 28%.

With `COc1ccc(-c2cnn3c(-c4cccc(NC(=O)c5cccc(C(F)(F)F)c5)c4)ccnc23)cn1` [Example 312, N-{3-[3-(6-methoxypyridin-3-yl)pyrazolo[1,5-a]pyrimidin-7-yl]phenyl}-3-(trifluoromethyl)benzamide], the negative logarithm of the IC50 (pIC50) is 6.24 and the inhibition at 10 µM was 77%.

In the case of “4-[7-(3-{[3-(trifluoromethyl)benzoyl]amino}phenyl)pyrazolo[1,5-a]pyrimidin-2-yl]benzyl acetate [Example 142]”, the pIC50 under setting [1] is less than 5.00. For the same molecule, the “% Inhib./10 uM” value (single point assay, 10 uM) was determined as 48%.

With `CCOC(=O)c1cnn2c(-c3cccc(NC(=O)c4ccc(-c5cc(C(F)(F)F)nn5C)s4)c3)ccnc12` [Example 224, ethyl7-{3-[({5-[1-methyl-3-(trifluoromethyl)-1H-pyrazol-5-yl]-2-thienyl}carbonyl)amino]phenyl}pyrazolo[1,5-a]pyrimidine-3-carboxylate], the inhibition at 10 µM was 39%. Also, the pIC50 under setting [1] was less than 5.00.

For the molecule `CCOC(=O)c1cnn2c(-c3cccc(NC(=O)c4cccc(C(F)(F)F)c4)c3)c(C)cnc12` [Example 176, ethyl 6-methyl-7-(3-{[3-(trifluoromethyl)benzoyl]amino}phenyl)pyrazolo[1,5-a]pyrimidine-3-carboxylate], the inhibition at 10 µM came to 86%. Further, the negative-log IC50 (pIC50) under setting [1] was 6.44.

As for `CN(C)S(=O)(=O)c1ccc(-c2cnn3c(-c4cccc(NC(=O)c5cccc(C(F)(F)F)c5)c4)ccnc23)cc1` [Example 288, N-[3-(3-{4-[(dimethylamino)sulfonyl]phenyl}pyrazolo[1,5-a]pyrimidin-7-yl)phenyl]-3-(trifluoromethyl)benzamide], the inhibition at 10 µM came out at 35%. Moreover, the negative logarithm of the IC50 (pIC50) under setting [1] is less than 5.00.

With `CN(C)CC#Cc1cnn2c(-c3cccc(NC(=O)c4cccc(C(F)(F)F)c4)c3)ccnc12` [Example 205, N-(3-{3-[3-(dimethylamino)prop-1-yn-1-yl]pyrazolo[1,5-a]pyrimidin-7-yl}phenyl)-3-(trifluoromethyl)benzamide], the inhibition at 10 µM is 81%. The negative logarithm of the IC50 (pIC50) under setting [1] was 5.76.

Regarding `CCOC(=O)c1cnn2c(-c3cccc(NC(=O)Nc4ccc(F)c(C(F)(F)F)c4)c3)ccnc12` [Example 44, ethyl 7-{3-[({[4-fluoro-3-(trifluoromethyl)phenyl]amino}carbonyl)amino]phenyl}pyrazolo[1,5-a]pyrimidine-3-carboxylate], the inhibition at 10 µM came to 90%. Also, the negative-log IC50 (pIC50) under setting [1] was 6.57.

On to `Cc1cc2nccc(-c3cccc(NC(=O)c4cccc(C(F)(F)F)c4)c3)n2n1` [Example 112, N-[3-(2-methylpyrazolo[1,5-a]pyrimidin-7-yl)phenyl]-3-(trifluoromethyl)benzamide], for which the inhibition at 10 µM stood at 26%. Moreover, the negative-log IC50 (pIC50) under setting [1] is less than 5.00.

On to `CN(CCN)c1cc(-c2cc3nccc(-c4cccc(NC(=O)c5cccc(C(F)(F)F)c5)c4)n3n2)ccn1` [Example 270, N-[3-(2-{2-[(2-aminoethyl)(methyl)amino]pyridin-4-yl}pyrazolo[1,5-a]pyrimidin-7-yl)phenyl]-3-(trifluoromethyl)benzamide], for which the inhibition at 10 µM came to 80%. Besides, the pIC50 under setting [1] was 5.69.

With `O=C(Nc1cccc(-c2ccnc3cc(N4CCOCC4)nn23)c1)c1ccc(Cl)c(C(F)(F)F)c1` [Example 197, 4-chloro-N-[3-(2-morpholin-4-ylpyrazolo[1,5-a]pyrimidin-7-yl)phenyl]-3-(trifluoromethyl)benzamide], the inhibition at 10 µM amounted to 91%. In addition, the negative-log IC50 (pIC50) under setting [1] is 6.70.

`CC(C)(C)OC(=O)NC1CCN(c2cc3nccc(-c4cccc(NC(=O)c5cccc(C(F)(F)F)c5)c4)n3n2)C1` (centres unmarked) [Example 212, tert-butyl {1-[7-(3-{[3-(trifluoromethyl)benzoyl]amino}phenyl)pyrazolo[1,5-a]pyrimidin-2-yl]pyrrolidin-3-yl}carbamate]: the inhibition at 10 µM came to 22%. Under setting [1], the pIC50 is less than 5.00.

Consider `CCOC(=O)c1cnn2c(-c3cccc(NC(=O)Nc4ccc(C)c(Cl)c4)c3)ccnc12` [Example 82, ethyl 7-[3-({[(3-chloro-4-methylphenyl)amino]carbonyl}amino)phenyl]pyrazolo[1,5-a]pyrimidine-3-carboxylate], for which the inhibition at 10 µM was found to be 77%. Further, the negative logarithm of the IC50 (pIC50) under setting [1] was 6.24.

For `CCOC(=O)c1cnn2c(-c3cccc(NC(=O)Cc4cc(C(F)(F)F)cc(C(F)(F)F)c4)c3)ccnc12` [Example 99, ethyl 7-[3-({[3,5-bis(trifluoromethyl)phenyl]acetyl}amino)phenyl]pyrazolo[1,5-a]pyrimidine-3-carboxylate], the inhibition at 10 µM was determined as 13%. Also, the negative logarithm of the IC50 (pIC50) under setting [1] was less than 5.00.

As for `O=C(Cc1nnn[nH]1)Nc1ccc(-c2cnn3c(-c4cccc(NC(=O)c5cccc(C(F)(F)F)c5)c4)ccnc23)cc1` [Example 233, N-[3-(3-{4-[(1H-tetrazol-5-ylacetyl)amino]phenyl}pyrazolo[1,5-a]pyrimidin-7-yl)phenyl]-3-(trifluoromethyl)benzamide], the inhibition at 10 µM stood at 96%. Further, the negative logarithm of the IC50 (pIC50) under setting [1] is 6.00.

For `CCOC(=O)c1cnn2c(-c3ccc(OC)c(NC(=O)c4ccc(C)c(C(F)(F)F)c4)c3)ccnc12` [Example 107, ethyl 7-(4-methoxy-3-{[4-methyl-3-(trifluoromethyl)benzoyl]amino}phenyl)pyrazolo[1,5-a]pyrimidine-3-carboxylate], the inhibition at 10 µM stood at 0%. Besides, the negative logarithm of the IC50 (pIC50) under setting [1] is less than 5.00.

Consider `O=C(Nc1cccc(-c2ccnc3cc(N4CCNCC4)nn23)c1)c1cccc(C(F)(F)F)c1` [Example 208, N-[3-(2-piperazin-1-ylpyrazolo[1,5-a]pyrimidin-7-yl)phenyl]-3-(trifluoromethyl)benzamide], for which the pIC50 was 5.21. The “% Inhib./10 uM” value (single point assay, 10 uM) worked out at 54%.

For `CCOC(=O)c1cnn2c(-c3ccc(Cl)c(NC(=O)c4cccc(C(F)(F)F)c4)c3)ccnc12` [Example 86, ethyl 7-(4-chloro-3-{[3-(trifluoromethyl)benzoyl]amino}phenyl)pyrazolo[1,5-a]pyrimidine-3-carboxylate], the inhibition at 10 µM amounted to 18%. The pIC50 under setting [1] is less than 5.00.

As for `CCOC(=O)c1cnn2c(-c3cccc(NC(=O)Cc4cccc(F)c4)c3)ccnc12` [Example 93, ethyl 7-(3-{[(3-fluorophenyl)acetyl]amino}phenyl)pyrazolo[1,5-a]pyrimidine-3-carboxylate], the inhibition at 10 µM worked out at 0%. Moreover, the pIC50 under setting [1] is less than 5.00.

Regarding `O=Cc1ccc(-c2cnn3c(-c4cccc(NC(=O)c5cccc(C(F)(F)F)c5)c4)ccnc23)o1` [Example 313, N-{3-[3-(5-formyl-2-furyl)pyrazolo[1,5-a]pyrimidin-7-yl]phenyl}-3-(trifluoromethyl)benzamide], the inhibition at 10 µM turned out to be 78%. The negative-log IC50 (pIC50) under setting [1] is less than 5.00.

As for `CCOC(=O)c1cnn2c(-c3cccc(NC(=O)c4cc(C(F)(F)F)ccc4Cl)c3)ccnc12` [Example 27, ethyl 7-(3-{[2-chloro-5-(trifluoromethyl)benzoyl]amino}phenyl)pyrazolo[1,5-a]pyrimidine-3-carboxylate], the inhibition at 10 µM was 12%. Also, the pIC50 under setting [1] was less than 5.00.

On to `O=C(Nc1cccc(-c2ccnc3cc(-c4ccco4)nn23)c1)c1cccc(C(F)(F)F)c1` [Example 113, N-{3-[2-(2-furyl)pyrazolo[1,5-a]pyrimidin-7-yl]phenyl}-3-(trifluoromethyl)benzamide], for which the inhibition at 10 µM is 45%. Further, the pIC50 under setting [1] is less than 5.00.

`O=C(Nc1cccc(-c2ccnc3c(C(=O)Nc4cccnc4)cnn23)c1)c1cccc(C(F)(F)F)c1` [Example 47, N-pyridin-3-yl-7-(3-{[3-(trifluoromethyl)benzoyl]amino}phenyl)pyrazolo[1,5-a]pyrimidine-3-carboxamide]: the inhibition at 10 µM turned out to be 35%. The negative logarithm of the IC50 (pIC50) under setting [1] is less than 5.00.
